Results on 1 compound are retold here after US8895610B1, “Platinum (IV) compounds targeting zinc finger domains” (priority 2007, dated 2014).

Several values for one entry are separate records, joined by “and”; a condition that tells them apart may be missing. Identical values can stand only once.

One data set relates to M2 strain of FIV. Description: Second FIV cat study, plasma viremia (five treated, three control cats). The note with it: after 6 intravenous doses of 3 mg/kg over four weeks, controls showed active viremia. Format: in vivo, domestic cat. An excerpt:
Eight specific-pathogen-free domestic female cats infected >2 years with the M2 strain of FIV were used in another study. Cats were housed individually in a climatized animal facility in accordance with standards, had ad libitum access to fresh water and food, and were sedated with Tiletamine/Zolazepam intramuscularly prior to any procedure. The animals were divided into two groups, with five receiving FX101 in 10% DMSO/saline (treated) and three receiving only 10% DMSO/saline (control). Prior to initiation of the treatment and at scheduled times, samples were collected for hematological and virological analyses. The cats received 6 intravenous doses of 3 mg/kg FX101 over four weeks. Cats were matched by birthdates and infection dates with similar viral blood plasma viremia levels at the onset of the study. […] Current antretrovirals are required on a daily basis; the efficacy of six doses of treatment over four weeks supports a distinct mechanism from the nucleotide/non-nucleotide reverse transcriptase, protease and infectivity inhibitors. Efficacy extends across diverse strains of FIV, in agreement with alterations by platinum(IV) compounds to the zinc-binding nucleocapsid domain being therapeutically targeted. It is anticipated that cotherapies targeting multiple mechanisms may eventually provide viral clearance for an infected host.

In data set [1] the test system is Petaluma strain of FIV (proviral DNA in PBMC). The experiment in a line: Proviral load in peripheral blood mononuclear cells by TM-PCR. The format is in vivo, domestic cat. The note with it: for Proviral Load in PBMC: cats BR, CF. The text has this:
Currently available antiretrovirals require daily dosing, often in combination therapy. Two 12^+-year old specific-pathogen-free domestic female cats infected >5 years with the Petaluma strain of FIV were used in this study. The animals were housed individually in a climatized animal facility in accordance with standards, had ad libitum access to fresh water and food, and were sedated with Tiletamine/Zolazepam intramuscularly prior to any procedure. The cats weighed from 3-5 kg each. Three weeks before initiation of the treatment and at scheduled times, samples were collected for hematological and virological analyses. The cats received 9 intravenous doses of 3 mg/kg FX101 over 4.5 weeks (2× weekly).
Genomic DNA was extracted from the PBMC using the QIAamp DNA Blood Mini kit (QIAGEN). Proviral DNA was quantified from 0.4 ug genomic DNA by TM-PCR under the same conditions used for cDNA amplification except that the reaction mixture volume was 25 ul (n=3). The sensitivity of the assay was 100 copies/ug genomic DNA (Pistello, 2005). Proviral load varied over the course of treatment, but measured much lower than baseline pretreatment measures both 6 and 9 months later (27 and 38 weeks, respectively). This measure reflects viral integration into the host PBMCs, primed for production of viral particles with commencement of transcription. […] This is indicative of viral clearance and immune recovery, including apoptotic elimination of virally-infected cells. Viral reservoirs, such as those of macrophages and monocytes, have prevented eradication of lentiviruses (Nicastri, 2008).
0.1664 g FX101 was dissolved into 30 mL 15% DMSO/PBS and stirred overnight. This solution was sterile-filtered using a 20-mL syringe fitted with a […] Sarstedt filter. Each dose was administered under anesthesia, a 1.5 mL venous injection using a 2.5 mL syringe fitted with a 22G 1¼-in. needle (latex free). Feline BR weighed 3.2 kg at the start of the experiment and CF weighed 2.8 kg. Each received 8.3 mg drug with each dose, so dosages were 2.6 mg/kg for BR and 3.0 mg/kg for CF.

The test system of another data set is FIV Petaluma. The experiment in a line: p25 antigen evaluation of antiviral activity in MBM cells. Format: cell-based, feline. The note with it: for p25 Viral Antigen (OD), average / p25 Viral Antigen (OD), individual wells: 7 days post infection, K+ = 1.195, K− = 0.08, listed as 4. Here is the method: Antiviral activity in MBM was determined by inoculating 200 Tissue Culture Infectious Doses 50% FIV Petaluma (Talbott, 1989) in 100 μL RPMI 1640 medium into quadruplicate wells of 96-well microplates containing 2×10^5 cells in 100 μL medium. The cultures were monitored by measuring FIV p25 capsid protein (Lombardi, 1994) release in the supernatants after 7 days of incubation at 37° C. in 5% CO2 (Table 12). Half the media (without drug) was replaced on days 2 and 6 after infection and initial drug exposure. […] Drugs are identified as: CPA-7 (#1); NAD (#2); cisplatin (#3) and FX101 (#4). […]. […] A minimum of 50% inhibition in vitro is required to offset viral infectivity and replication in vivo.

The target in data set [2] is synthetic peptide F2, the carboxy-terminal zinc finger domain of HIV-1 (Human immunodeficiency virus type 1 group M subtype B, UniProt P12493). As to conditions: 100 pmole/microliter solutions, equal volumes; isotopic distribution of platinum at m/z~631.
Description: FIGS. 1A and 1B show Time of Flight (TOF) mass spectroscopy (MS) fragmentation pattern of the synthetic peptide F2, the carboxy-terminal zinc finger domain of HIV-1, bound to platinum. […] Equal volumes of F2 with FX101, F2 with ZnCO3, F2 with both FX101 and ZnCO3 were mixed, resulting in four total peptide solutions. Full TOF MS was acquired on the QSTAR at the Johns Hopkins Proteomics Core Facility with 1 uL of original sample diluted 1:10 in 50% methanol with 0.1% formic acid/water and 3 uL of this mixture loaded onto the 2 um New Objective tip and nano-sprayed using ion spray voltage of 1200 eV; mass calibration of Csl mixture was performed prior to sample injection. Mass range 590 kDa (50%) to 10500 kDa (50%) was collected for 1.0 minute.
The subject of data set [3] is HIV-Infected Human Monocyte-Derived Macrophages. Description: Reverse transcription rates in HIV-infected monocyte-derived macrophages. The format is cell-based. The note with it: 1 to 10 uM; vs untreated and mock-infected MDM. Here is the method:
Primary human monocyte-derived macrophages (MDM) were prepared by culturing elutriated monocytes in RPMI-1640 medium, supplemented with 10% fetal bovine serum for 5 to 7 days on ultra-low attachment plates. MDMs were detached from the plates and plated onto tissue culture dishes or microscope culture chambers. MDMs in 6-well plates were infected with WT pNL(AD8) virus stocks and 2×10^6 reverse transcriptase cpm/well. Various incubated concentrations of platinum(IV) compound ranging from 1 to 10 uM were compared with untreated (no drug) and mock-infected MDM reverse transcription rates (counts per minute/microliter). Medium in the MDM cultures was changed every two days and an aliquot was reserved for reverse transcriptase (RT) activity at each time point (Gousset, 2008). […] This activity parallels that observed by Mark-Danieli et al. (2005) by certain zinc finger mutations of the nucleocapsid protein; other investigators have reported decreases or no changes in transcription rates with various mutations (Ramboarina, 2004; Houzet, 2008). […] Increasing the efficiency of reverse transcription initiation is detrimental to viral replication (Thomas and Gorelick, 2008). One role of nucleocapsid proteins is regulation of the transcription cadence in virally-infected cells.

Data set [4] can be described thus: Blood brain barrier penetration: CSF platinum by graphite furnace atomic absorption. The format is in vivo, cat. The note with it: final i.v. treatment, both cats. Here is the method: Cerebrospinal fluid (CSF) from cats BR and CF of Example 6 were collected under sedation following humane animal practices. CSF (0.5-1 ml) samples were collected within 15 minutes of FX101 peripheral intravenous (IV) injection to examine for drug penetration into the CNS. Importantly, this analysis was conducted upon the final IV drug treatment, which would most likely evidence resistances to CNS uptake as experienced by other CNS-penetrable drugs. Instead, CSF concentrations (analyzed by graphite furnace atomic absorption spectrometry for this inorganic complex as illustrated for cat “BG”) were equivalent to blood serum concentrations of 5 micrograms/mL in both cats, supporting a continuing unimpeded penetration into the vital CNS compartment through the blood brain barrier.

Take `[NH2][Pt]([NH2])([Cl])([Cl])([Cl])[N+](=O)[O-]` [FX101, nitrotrichlorodiamminoPt(IV)]: in the data set on M2 strain of FIV, the plasma viremia levels entry is reported as “below the detection limit of the assay”. Further, in data set [1] (14 days after the final dosing, both animals), the “PBMC proviral load immediately following final dosing (in words)” value is “short increase”. The “Proviral Load in PBMC” value in data set [1] (Aug. 23, 2007 start of treatment period, blood collected prior to dosing) was 4472 proviral DNA copies/ug genomic DNA and 6867 proviral DNA copies/ug genomic DNA; in data set [1] (Aug. 30, 2007 treatment period) it was 5803 proviral DNA copies/ug genomic DNA and 6476 proviral DNA copies/ug genomic DNA; in data set [1] (Jun. 12, 2008 (+38 wk) post treatment) it was 1747 proviral DNA copies/ug genomic DNA and 1350 proviral DNA copies/ug genomic DNA; in data set [1] (Mar. 27, 2008 (+27 wk) post treatment), 1250 proviral DNA copies/ug genomic DNA and 1000 proviral DNA copies/ug genomic DNA; in data set [1] (Oct. 4, 2007 (+2 wk) post treatment), 14500 proviral DNA copies/ug genomic DNA and 14724 proviral DNA copies/ug genomic DNA; in data set [1] (Oct. 20, 2007 (+4 wk) post treatment), 4211 proviral DNA copies/ug genomic DNA and 2790 proviral DNA copies/ug genomic DNA. In addition, in data set [1] (Sep. 20, 2007 treatment period), the “Proviral Load in PBMC” value was 4152 proviral DNA copies/ug genomic DNA and 4660 proviral DNA copies/ug genomic DNA. The “proviral loads over subsequent months (in words)” value in data set [1] (months after treatment, vs pretreatment baseline) is reported as “declined over subsequent months, even below pretreatment baseline measures”. In addition, the “inhibition (elimination of all measures of virus) by day 7” value with FIV Petaluma (7 days, concentrations used 5 and 20 μM, listed as #4) is 100%. Besides, the “p25 Viral Antigen (OD), average” value in the data set with FIV Petaluma (conc 5 μM) and with FIV Petaluma (conc 20 μM) was 0 OD throughout. The “p25 Viral Antigen (OD), individual wells” value in the data set with FIV Petaluma (conc 5 μM) and in the data set on FIV Petaluma (conc 20 μM) was 0 OD each time. The “direct binding of platinum to F2 peptide by TOF MS” value in data set [2] is “Pt-bound peptide”. The reverse transcription rate result in data set [3] is reported as “do not inhibit reverse transcription in this system, but rather increase this rate”. In data set [4], this compound yielded a blood serum concentrations of 5 micrograms/mL. In data set [4] (within 15 minutes of peripheral i.v. injection), this compound registered a CSF concentrations of 5 micrograms/mL.
